Measured values as given in US20210000955A1, “PHOTODYNAMICALLY ACTIVE ORGANOSILICA NANOPARTICLES AND MEDICAL USES THEREOF” (NANYANG TECHNOLOGICAL UNIVERSITY, priority 2017, published 2021).
Each block holds one molecule with its values, some of them ahead of it.

Assays:
SKMEL-28 cells = assay: In vitro oxidative stress detection; format: cell-based, Human; details: positive control, 1 μM, 15 minutes
Procedure: The in vitro oxidative stress was analyzed using the Image-IT® LIVE Green Reactive Oxygen Species Detection Kit from Thermo Fisher according to manufacturer's instructions. SKMEL-28 cells were seeded in a 12-well plate. PcNP was added at a final concentration of 25 μg/mL. After incubation for 12 hours, the cells were labelled with carboxy-H2DCFDA for 10 minutes and washed with PBS. The cells corresponding to the PcNP+hv treatment were irradiated with 730 nm, 0.75 W/cm^2 laser for 20 minutes. A positive control using common ROS production inducer TBHP was added to a final concentration of 1 μM and incubated for 15 minutes. After the treatment, the cell nuclei were labeled with Hoechst 33342 (1 μM). Coverslips were then washed with PBS, fixed and mounted onto microscopy glass slides for imaging by CLSM. Carboxy-H2DCFDA λex/em: 488/529 nm, Hoechst 33342 λex/em: 350/461 nm.

[1] = Topical penetration of porcine skin, IVIS fluorescence; format: in vitro ADME; details: regardless of the microneedle treatment
Procedure: Fresh full-thickness porcine skin was obtained from a local wholesaler and cut into 1 cm by 1 cm pieces. The subcutaneous fats were gently stripped from the porcine skin. Any remaining skin was kept frozen at −20° C. and used as soon as possible. A pyramidal stainless steel microneedle patch consisting of 100 needles in a 10×10 array with a height of ˜500 μm, a tip radius of 5 μm, a pitch of ˜700 μm and a base width of ˜300 μm was obtained from Micropoint Technologies Pte Ltd (Singapore). […] PcNP solution at 20 mg/mL concentration was compared against free Pc (equivalent to the concentration of Pc in PcNP at 20 mg/mL). The penetration of PcNP was tested after two durations: 10 minutes and 1 hour. The penetration was conducted with and without the help of the microneedle patch. Briefly, if required, the skin was pierced with the microneedle patch under a force of about 4 N for 10 seconds before its removal. […] The fluorescence intensity of the adsorbed Pc was measured using an IVIS SpectrumCT Pre-clinical in Vivo Imaging System (Perkin Elmer), where λex/em is 640/700-760 nm. […] To calculate the percentage of PcNP that penetrated into the skin, the intensity reading for each skin was normalized against that of PBS and PcNP positive control. In the case of free Pc penetration, this percentage was calculated by normalizing the readings against that of PBS and free Pc positive control.

[2] = obtained online; cited from earlier work

SMILES: CC(C)(C)OO [TBHP, tert-Butyl hydroperoxide]
cells oxidatively stressed (SKMEL-28 cells): about 74%

skin penetration [1]: minimal skin penetration
SMILES: c1ccc2c(c1)-c1nc-2nc2[nH]c(nc3nc(nc4[nH]c(n1)c1ccccc41)-c1ccccc1-3)c1ccccc21 [free Pc, Phthalocyanine]

SMILES: CN(C)c1ccc2nc3ccc(=[N+](C)C)cc-3sc2c1 [MB, methylene blue]
singlet oxygen quantum yield ΦΔ(MB), reference value [2]: 0.52
